Experimental data taken from US10953051B2, “Methods and means for protecting the skin against pathogenic microorganisms” (Novozymes A/S, priority 2005, dated 2021).
Positions of bridges follow the written chain, without caps; N, C: chain ends. Non-standard residues stand in square brackets, D forms with d. Residues, ends and D or L forms follow the SMILES beside them. *: point of attachment. Ileψ(thiazoline)Cys = CC[C@H](C)[C@H](N)C1=N[C@H](C(=O)*)CS1; dOrn = NCCC[C@@H](N)C(=O)O

Assays:
resident flora = conditions: infants, after treatment with the antibiotic (Brook, 2000); cited from earlier work
[1] = test system: Staphylococcus aureus (DSM346); assay: in-vitro-hole plate assay, growth inhibition of S. aureus in comparison to bacitracin and erythromycin; type: cell-based; conditions: pre-cutted holes, BHI plates; antibiotics at different concentrations, defined numbers of Lactobacillus cells
Procedure: The term “microorganisms of the pathogenic transient micro flora” has been described herein above. Preferably, the term relates to Staphylococcus aureus. […] This effect has been compared to commercial antibiotic cream preparations of bacitracin and erythromycin. […] The diameter of the inhibition zones has been measured and the area of inhibition has been calculated thereof. […] Lactic acid bacteria were cultivated (OB-LB-Sa3; DSM 18006) from a −80° C. freezing culture in 1 ml MRS broth in eppendorf tubes. Tubes were closed and cultivated for 2 days at 37° C. 10 μl of this pre culture was transferred to the main culture consisting of 7 ml MRS broth in falcon tubes. The culture was incubated for 2 days. After cultivation cells were harvested by centrifugation (15 min, 4000×g). The cell pellet was washed two times with K/Na-buffer (each 1 ml). Cells were resuspended in 200 μl K/Na buffer. The indicator strain was Staphylococcus aureus (DSM346). 20 ml BHI broth in a shaking glass flask were inoculated with 15 μl of a 24 h pre culture. The indicator strain was cultivated for 24 h at 37° C. An aliquot was diluted to an optical density OD595 nm of 0.025-0.05 in BHI-broth and 800 μl spread on indicator plates (BHI). The agar was stamped using a cork borer. The holes were filled with 5 μl or 10 μl of the pre cultured lactic acid bacteria or corresponding volumes of commercial antibiotic preparations.

Row | Compound | repression of the resident flora (resident flora) | growth inhibition of S. aureus (inhibition zone, area of inhibition) [1]
1 | CC1(C)S[C@@H]2[C@H](NC(=O)[C@H](N)c3ccc(O)cc3)C(=O)N2[C@H]1C(=O)O [amoxicillin] | about 50% | –
2 | CC[C@H](C)[C@H](N)C1=N[C@H](C(=O)N[C@@H](CC(C)C)C(=O)N[C@H](CCC(=O)O)C(=O)N[C@H](C(=O)N[C@H]2CCCCNC(=O)[C@H](CC(N)=O)NC(=O)[C@@H](CC(=O)O)NC(=O)[C@H](Cc3cnc[nH]3)NC(=O)[C@@H](Cc3ccccc3)NC(=O)[C@H]([C@@H](C)CC)NC(=O)[C@@H](CCCN)NC2=O)[C@@H](C)CC)CS1 [bacitracin] ({Ileψ(thiazoline)Cys}-L[dE]IK[dOrn]I[dF]H[dD]N; lactam 4-C) | – | growth inhibition
3 | CC[C@H]1OC(=O)[C@H](C)[C@@H](O[C@H]2C[C@@](C)(OC)[C@@H](O)[C@H](C)O2)[C@H](C)[C@@H](O[C@@H]2O[C@H](C)C[C@H](N(C)C)[C@H]2O)[C@](C)(O)C[C@@H](C)C(=O)[C@H](C)[C@@H](O)[C@]1(C)O [erythromycin] | – | growth inhibition
4 | Lactobacillus delbrückii ssp. delbrückii OB-LB-Sa3 | – | growth inhibition
